Measured values from paper PMC8448819, “The Arabidopsis MIK2 receptor elicits immunity by sensing a conserved signature from phytocytokines and microbes” (Nature Communications, 2021).
“And” between values parts separate entries of the source, which are not always exact repeats. Identical values can stand only once. “Also recorded” adds a separate entry of the source. Like-named read-outs stand apart in the source and are kept apart here.

Legend:
mik2 mutant seedlings = test: ROS assay (luminol), mik2 mutants; assay type: in vivo, Arabidopsis thaliana; conditions: mik2 mutants, 100 nM SCOOPs or 1 µM FocSCOOPL
Procedure: (§1) ROS burst was determined by a luminol-based assay. […] Then, ddH2O was replaced by 200 µL of reaction solution containing 50 µM of luminol, and 10 µg/mL of horseradish peroxidase (Sigma-Aldrich) supplemented with or without 100 nM or 1 μM peptide. Luminescence was measured immediately after adding the solution with a luminometer (Glomax 20/20n, Promega) with a one-second interval for 15 min. The total values of ROS production were indicated as means of the relative light units (RLUs).

[1] = system: bak1-4 and bak1-5/serk4 mutant seedlings; test: ROS assay (luminol), coreceptor mutants; assay type: in vivo, Arabidopsis thaliana
Procedure: as §1

[2] = system: bik1/pbl1 mutant seedlings; test: ROS assay (luminol), bik1/pbl1; assay type: in vivo, Arabidopsis thaliana; conditions: bik1/pbl1, 100 nM SCOOP12 or 1 µM FocSCOOPL
Procedure: as §1

rbohD mutant seedlings = test: ROS assay (luminol), rbohD; assay type: in vivo, Arabidopsis thaliana
Procedure: as §1

p35S::Aequorin seedlings = assay type: in vivo, Arabidopsis thaliana
[3] = system: MPK3, MPK4 and MPK6 phosphorylation, mik2-1 seedlings; test: MAPK assay (α-pERK1/2 immunoblot), mik2-1; assay type: in vivo, Arabidopsis thaliana; design: dose or concentration left out as unconfirmed; conditions: mik2-1, α-pERK1/2 immunoblot
MIK2-BAK1 association = test: Co-immunoprecipitation MIK2-BAK1; assay type: cell-based, Arabidopsis thaliana; conditions: protoplasts, MIK2-HA and BAK1-FLAG, 15 min, co-IP
Procedure: For co-IP assays in protoplasts, protoplasts were co-transfected with pHBT-35S::MIK2-HA and pHBT-35S::BAK1-FALG or pHBT-35S::SERK4-FLAG at 50 μg DNA for 500 μL protoplasts at the density of 2 × 10^5/mL for each sample and were incubated for 12 h. After treatment with 1 µM SCOOP peptides for 15 min, samples were collected by centrifugation at 200 × g for 2 min and lysed in 300 μL IP buffer (20 mM Tris-HCl, pH 7.5, 100 mM NaCl, 1 mM EDTA, 2 mM DTT, 10% [v/v] Glycerol, 0.5% [v/v] Triton X-100 and protease inhibitor cocktail from Sigma) by vortexing. After centrifugation at 10,000 × g for 10 min at 4 °C, 30 μL of supernatant was collected for input controls. The remaining supernatant was pre-incubated with protein-G-agarose beads at 4 °C for 1 h with gentle shaking at […] on a rocker. IP was carried out with α-FLAG agarose for 3 h at 4 °C. Beads were collected by 500 × g centrifugation for 2 min and washed three times with washing buffer (20 mM Tris-HCl, pH 7.5, 100 mM NaCl, 1 mM EDTA, 0.1% [v/v] Triton X-100) and once with 50 mM Tris-HCl, pH 7.5. Immunoprecipitated proteins and input proteins were analyzed by immunoblotting with α-HA (1:3000; Roche, Cat # 12013819001) or α-FLAG antibodies (1:3000; Sigma-Aldrich, Cat # A8592).
For co-IP assays in transgenic seedlings, leaves of 4-week-old pMIK2::MIK2-GFP transgenic plants were hand-inoculated with 1 μM SCOOP10^B or SCOOP12 and were treated for 30 min, followed by total protein isolation with extraction buffer (50 mM Tris-HCl, pH 7.5, 150 mM NaCl, 1% [v/v] NP-40 and 1:200 protease inhibitor cocktail from Sigma). Co-IP was carried out the same as for co-IP with protoplasts except that GFP-Trap agarose beads (Chromotek) were used instead. Immunoprecipitated proteins and input proteins were analyzed by immunoblotting with α-GFP (1:3500; Roche, Cat # 11814460001) or α-BAK1 antibodies (1:2000)[64].

[4] = system: Arabidopsis WT (Col-0) seedlings; assay type: in vivo, Arabidopsis thaliana
MIK2^ECD [5] = biological target: T1, MIK2^ECD (Arabidopsis thaliana, UniProt Q8VZG8); test: Isothermal titration calorimetry (ITC); assay type: binding; conditions: 25 °C, pH 7.0; 600 μM peptide into 30 μM MIK2^ECD
T1 construct: MIK2^ECD (residues 1–707) and BAK1^ECD (residues 1–220) were amplified by PCR from Col-0 cDNA; 6xHIS (C); made in house; host or cells: High Five insect cells (Bac-to-Bac baculovirus system)
T1 sequence (Q8VZG8 44-707): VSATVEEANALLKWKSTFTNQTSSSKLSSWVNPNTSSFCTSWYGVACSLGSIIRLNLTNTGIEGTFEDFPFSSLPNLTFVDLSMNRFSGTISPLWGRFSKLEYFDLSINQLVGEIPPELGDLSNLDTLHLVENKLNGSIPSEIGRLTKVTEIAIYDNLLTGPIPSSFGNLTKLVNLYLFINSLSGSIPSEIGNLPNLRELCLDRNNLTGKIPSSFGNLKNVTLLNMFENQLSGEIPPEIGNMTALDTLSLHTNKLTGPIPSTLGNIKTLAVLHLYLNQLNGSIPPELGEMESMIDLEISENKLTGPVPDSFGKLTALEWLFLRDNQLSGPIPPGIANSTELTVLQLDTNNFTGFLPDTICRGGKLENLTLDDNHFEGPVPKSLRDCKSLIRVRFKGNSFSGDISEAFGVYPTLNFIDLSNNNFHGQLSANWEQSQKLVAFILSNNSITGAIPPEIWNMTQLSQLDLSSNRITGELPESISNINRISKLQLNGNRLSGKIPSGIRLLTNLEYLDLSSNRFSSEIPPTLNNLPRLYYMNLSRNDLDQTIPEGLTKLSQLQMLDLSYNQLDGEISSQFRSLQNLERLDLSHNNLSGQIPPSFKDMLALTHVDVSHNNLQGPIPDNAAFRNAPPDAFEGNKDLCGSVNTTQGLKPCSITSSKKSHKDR

MIK2^ECD [6] = biological target: T1, MIK2^ECD; test: Surface plasmon resonance (SPR); assay type: binding; conditions: CM5 chip with immobilized MIK2^ECD
MIK2^ECD-BAK1^ECD = test: Gel filtration of MIK2^ECD and BAK1^ECD; assay type: biochemical, Arabidopsis thaliana; conditions: 0.1 mg peptide, 10 mM Bis-Tris pH 6.0, 100 mM NaCl, on ice 1 h
Procedure: The ECD domains of MIK2 (MIK2^ECD) and BAK1 (BAK1^ECD) fused with a 6 × HIS tag at the C-terminus were expressed using the Bac-to-Bac baculovirus expression system (Invitrogen) in High Five cells at 22 °C[25]. One liter of cells (1.8 × 10^6 cells per mL cultured in the medium from Expression Systems) was infected with 20 mL baculovirus and the media were harvested after 48 h of infection. The secreted MIK2^ECD-6 × HIS and BAK1^ECD-6 × HIS proteins were purified using Ni-NTA (Novagen) and size-exclusion chromatography (Hiload 200, GE Healthcare) in buffer containing 10 mM Bis-Tris pH 6.0 and 100 mM NaCl.
The purified MIK2^ECD proteins (0.5 mg for each) and BAK1^ECD proteins (0.2 mg for each) were incubated together with SCOOP12 or SCOOP12^SS/AA (0.1 mg for each) in a buffer containing 10 mM Bis-Tris, pH 6.0, 100 mM NaCl on ice for 1 h. Then, each of the mixtures was separated by gel filtration (Hiload 200, GE Healthcare) with a flow rate of 0.8 mL/min and an injection volume of […] at 4 °C, and the peak fractions were separated on SDS-PAGE followed by Coomassie blue (CBB) staining.

[7] = system: mik2-1 and mik2-2 mutant seedlings; assay type: in vivo, Arabidopsis thaliana; conditions: individual values, one per line
[8] = system: Arabidopsis WT seedling roots; test: Microscopy of root browning and root meristems, WT; assay type: in vivo, Arabidopsis thaliana
Arabidopsis WT seedlings = test: ROS assay (luminol), WT seedlings; assay type: in vivo, Arabidopsis thaliana; conditions: WT seedlings
Procedure: as §1

[9] = system: MPK3, MPK4 and MPK6 phosphorylation, WT seedlings; test: MAPK assay (α-pERK1/2 immunoblot), WT; assay type: in vivo, Arabidopsis thaliana
Procedure: (§2) Ten-day-old seedlings grown vertically on ½MS plates were transferred to ddH2O overnight for recovery. Then, ddH2O was replaced by 100 nM peptides for the indicated time.

[10] = system: MPK3, MPK4 and MPK6 phosphorylation, bak1-4 and bak1-5/serk4 seedlings; test: MAPK assay (α-pERK1/2 immunoblot), coreceptor mutants; assay type: in vivo, Arabidopsis thaliana
Procedure: as §2

[11] = system: MYB51 promoter, pMYB51::GUS seedling roots; test: Histochemical GUS staining, pMYB51::GUS; assay type: in vivo, Arabidopsis thaliana; conditions: pMYB51::GUS seedlings, 1 µM, 3 h
Description: Stained samples were fixed with a 3:1 ethanol:acetic acid solution overnight and cleared by lactic acid and photographed with the Olympus SZX10 stereoscopic microscope equipped with DP27 camera.

[12] = system: WRKY30, WRKY33 and CYP81F2 expression, WT seedlings; test: RT-qPCR of defense genes, WT; assay type: in vivo, Arabidopsis thaliana
[13] = system: WRKY30, WRKY33 and CYP81F2 expression, mik2 seedlings; test: RT-qPCR of defense genes, mik2 mutants; assay type: in vivo, Arabidopsis thaliana
[14] = system: WT roots and leaf protoplasts; test: TAMRA-SCOOP12 binding and competition in vivo, WT (confocal); design: species or system Arabidopsis thaliana; conditions: 100 nM TAMRA-SCOOP12, 5 min
[15] = system: mik2-1 roots and leaf protoplasts; test: TAMRA-SCOOP12 binding in vivo, mik2-1 (confocal); design: species or system Arabidopsis thaliana; conditions: mik2-1, 100 nM TAMRA-SCOOP12, 5 min

MAQSWLKEESSSSHSERAGGR [FocSCOOPL, SCOOPL peptide from F. oxysporum f. sp. conglutinans strain Fo5176]
ROS production in mik2 (mik2 mutant seedlings): blocked in mik2 | ROS production in bak1-4 ([1]; bak1-4, 100 nM SCOOP12): blocked in mik2 (h), and in bak1-4 | ROS production in bak1-5/serk4 ([1]; bak1-5/serk4, 100 nM SCOOP12 or 1 µM FocSCOOPL): compromised in the bak1-5/serk4 | ROS production in bik1/pbl1 [2]: compromised in the bak1-5/serk4, bik1/pbl1, and rbohD mutants | ROS production in rbohD (rbohD mutant seedlings): compromised in the bak1-5/serk4, bik1/pbl1, and rbohD mutants | concentration inducing cytosolic Ca^2+ increase (p35S::Aequorin seedlings; in vivo): 100 nM | cytosolic Ca^2+ increase (p35S::Aequorin seedlings; in vivo): triggers the cytosolic Ca^2+ increase | MAPK activation in mik2 [3]: blocked in mik2-1 | MIK2-BAK1 association in protoplasts (MIK2-BAK1 association): induces MIK2-BAK1 association

MGSGASGPVRSAQASQAGGR [SCOOP12SS/AA, Alanine substitutions on two conserved serine residues in the SxS motif of SCOOP12]
root growth inhibition of SCOOP12^SS/AA ([4]; Supplementary Fig. 5d, e): abolished its activities to inhibit root growth through MIK2 | binding to MIK2^ECD, ITC (MIK2^ECD [5]): No binding was detected | binding to MIK2^ECD, SPR (MIK2^ECD [6]): nearly no binding | MIK2^ECD-BAK1^ECD dimerization (MIK2^ECD-BAK1^ECD): unable to induce the dimerization between MIK2^ECD and BAK1^ECD

RPPTAPIYLPPSKSRKGKGP [SCOOP13, synthesized SCOOP peptide corresponding to the SxS motif]
root growth inhibition ([4]; in vivo): inhibited root growth to various degrees, with SCOOP10^B and 13 being the most active; also recorded: potent in inhibiting root growth | Root length (Fig. 3e) ([7]; mik2-1): 22.796 and 23.072 and 22.084 and 23.813 and 22.472 and 23.316 and 25.007 and 26.178 and 24.196 and 22.194 | Root length (Fig. 3e) ([7]; mik2-2): 23.916 and 28.782 and 22.331 and 28.855 and 26.162 and 23.502 and 23.674 and 22.828 and 26.36 and 25.263 and 22.35 | root browning ([8]; WT seedlings, prolonged treatment): led to brown roots | root meristem distortion ([8]; WT, 5-day-old seedlings, 1 µM, 48 h, PI staining): distorted root meristems | ROS production, total luminescence (Fig. 2h) (Arabidopsis WT seedlings; repeat 1): 1290342 | ROS production, total luminescence (Fig. 2h) (Arabidopsis WT seedlings; repeat 2): 1525381 | ROS production, total luminescence (Fig. 2h) (Arabidopsis WT seedlings; repeat 3): 622461 | ROS production, SCOOP13 and 14 relative to other SCOOPs, and Ca^2+ bursts (p35S::Aequorin seedlings; Ca^2+ and ROS bursts, 100 nM): relatively weak activities for Ca^2+ and ROS bursts | MAPK activation in shoots and roots ([9]; Supplementary Fig. 3i): triggered the MAPK activation in both shoots and roots | MAPK activation in bak1-4 ([10]; bak1-4): reduced in bak1-4 | MAPK activation in bak1-5/serk4 ([10]; bak1-5/serk4): substantially blocked in bak1-5/serk4 | MYB51 promoter activity in roots [11]: induced the promoter activities of MYB51 | WRKY30, WRKY33 and CYP81F2 expression ([12]; 1 µM, 1 h, RT-qPCR): upregulation | CYP81F2 expression (Fig. 3i) ([12]; repeat 1): 41.34 | CYP81F2 expression (Fig. 3i) ([12]; repeat 2): 47.71 | CYP81F2 expression (Fig. 3i) ([12]; repeat 3): 93.81 | CYP81F2 expression (Fig. 3i) ([12]; repeat 4): 121.82 | CYP81F2 expression (Fig. 3i) ([13]; mik2-1, repeat 1): 0.33 | CYP81F2 expression (Fig. 3i) ([13]; mik2-1, repeat 2): 0.51 | CYP81F2 expression (Fig. 3i) ([13]; mik2-1, repeat 3): 2.20 | CYP81F2 expression (Fig. 3i) ([13]; mik2-1, repeat 4): 5.48 | CYP81F2 expression (Fig. 3i) ([13]; mik2-2, repeat 1): 3.17 | CYP81F2 expression (Fig. 3i) ([13]; mik2-2, repeat 2): 4.70 | CYP81F2 expression (Fig. 3i) ([13]; mik2-2, repeat 3): 4.82 | CYP81F2 expression (Fig. 3i) ([13]; mik2-2, repeat 4): 7.05 | WRKY30, WRKY33 and CYP81F2 expression ([13]; mik2 mutants, 1 µM, 1 h, RT-qPCR): abolished in mik2 mutants

TAMRA-MGSGASGPVRSSQSSQAGGR [TAMRA-SCOOP12, red fluorescent tetramethylrhodamine (TAMRA)-labeled SCOOP12 peptides at its N-terminus]
bioactivity of labelled peptide: root growth inhibition vs SCOOP12 ([4]; Supplementary Fig. 5a, b, MIK2-dependent): slightly lesser extent than SCOOP12 | MAPK activation by labelled peptide vs SCOOP12 ([9]; Supplementary Fig. 5c, MIK2-dependent): slightly lesser extent than SCOOP12 | red fluorescent labelling of root tips and leaf protoplasts [14]: Red fluorescent signals were detected | red fluorescent labelling of root tips and leaf protoplasts [15]: not in mik2-1
